The source of these data is PMC7659979, “Discovery and Evaluation of Enantiopure 9H-pyrimido[4,5-b]indoles as Nanomolar GSK-3β Inhibitors with Improved Metabolic Stability” (International Journal of Molecular Sciences, 2020).

The structures appear in SMILES notation.

In this assay the test system is GSK3β activity (phospho-GSK3α/β) in neuronal SH-SY5Y cells. The assay is described as follows: Cellular GSK-3α/β inhibition by western blotting in SH-SY5Y cells. The conditions noted are these: 1 μM, 1 h of treatment. Format: cell-based, human. As to the method: Initially, we determined the concentrations of (R)-28 not associated to neurotoxicity by the MTT assay. Therefore, concentrations of 1 and 5 µM were selected for the assays in SH-SY5Y cells, which were performed according to previously described protocols.
5. Investigation of Cellular GSK-3α/β Inhibition by (R)-28 and Its Neuroprotective Effects
Human neuronal SH-SY5Y cells (Sigma Aldrich, St. Louis, MO, USA) were routinely grown in Dulbecco’s modified Eagle’s Medium supplemented with 10% fetal bovine serum, 2 mM L-glutamine, 50 U/mL penicillin and 50 µg/mL streptomycin at 37 °C in a humidified incubator with […]
SH-SY5Y cells were seeded in a 96-well plate at 2 × 10^4 cells/well, incubated for 24 h and then treated with various concentrations (1.25–40 µM) of (R)-28 for 24 h. Cell viability, in terms of mitochondrial activity, was evaluated by MTT assay, as previously described.
5.3. Neuroprotective Activity toward H 2O2
SH-SY5Y cells were seeded in a 96-well plate at 2 × 10^4 cells/well, incubated for 24 h and subsequently treated with (R)-28 (5 µM) and H 2O2 (100 µM) for 1 h. Then, cells were starved in complete medium for 22 h. The neuroprotective activity was measured by using the MTT assay as previously described . Data are expressed as a percentage of neurotoxicity versus untreated cells.
5.4. […]
Background: A western blot detects proteins with antibodies after separation by electrophoresis.

On to `CCC(=O)N1CCC[C@@H](N(C)c2ncnc3[nH]c4cc(Br)ccc4c23)C1` [Compound (R)-28, (R)-1-(3-((7-bromo-9H-pyrimido[4,5-b]indol-4-yl)(methyl)amino)piperidin-1-yl)propan-1-one], for which the “active phospho-GSK3α/β (Tyr279/Tyr216)” value is “decrease” and the “inactive phospho-GSK3α/β (Ser21/9)” value is on record as “increase”.
